Source: US10851165B2, “Antibody molecules to PD-L1 and methods of treating cancer” (Novartis AG, priority 2014, dated 2020)
Blank lines part the entries; values can stand above or below the molecule they belong to.

How the values were obtained:
[1] = tested on: PD-L1 (CD274) mRNA in UKE-1 tumors; assay: PD-L1 mRNA by TaqMan RT PCR in UKE-1 tumor xenograft model; conditions: tumor xenograft model bearing UKE-1 (MPN line with JAK2V617F mutation)
[2] = tested on: PD-L1 (CD274) mRNA in H3122 cells; assay: PD-L1 mRNA by TaqMan RT PCR in H3122 cells in vitro; type: cell-based, human; conditions: H3122 (NSCLC with ALK translocation) in vitro
Procedure: H3122 cells are non-small cell lung cancer (NSCLC) cells with an ALK translocation.
(§1) Isolated RNA was frozen at −80° C.
(§2) Each sample was run in triplicate.

[3] = tested on: PD-L1 (CD274) in EBC-1 cells; assay: PD-L1 surface expression by flow cytometry in EBC-1 cells in vitro; type: cell-based, human; conditions: EBC-1 cells (NSCLC with cMET amplification) in vitro; 10 nM, 100 nM, 1000 nM; 24, 48 and 72 hours; vs DMSO
Procedure: EBC-1 cells are non-small cell lung cancer cells with a cMET amplification.
PD-L1 (CD274) expression was analyzed in cancer cell lines treated with Compound A17. Cells were obtained from ATCC and cultured in vitro following ATCC directions. The cell lines used were previously characterized by the Cancer Cell Line Encyclopedia Project (http://www.broadinstitute.org/ccle/home).
Cells plated in six-well culture plates were treated with the Compound A17 at different concentrations (10 nM, 100 nM, and 1000 nM) for 24, 48 and 72 hours. Equal amount of vehicle (DMSO) was used as a control. Cells were washed with PBS and then harvested using a cell scraper.
For each reaction, 0.5-1×10^6 cells were stained with 20 μL of anti-human monoclonal PD-L1-PE antibody, clone M1H1 (BD) for 30-60 minutes at 4° C. Cells were washed twice and data was acquired using a Canto II with FACSDiva software (BD Bioscience). Data analysis was performed using FlowJo software (Tree Star). Mean fluorescence intensity (MFI) was determined by gating on single cells. Unstained cells were used as a gating control.

[4] = tested on: PD-L1 (CD274) mRNA in Hs.746.T tumor; assay: PD-L1 mRNA by TaqMan RT PCR in Hs.746.T tumor xenograft; type: in vivo, human; conditions: Hs.746.T tumor (gastric cancer cell with cMET amplification & mutation) xenograft
Procedure: Hs.746.T cells are gastric cancer cells with a c-MET amplification and a c-MET mutation.
as §1, §2

[5] = tested on: PD-L1 (CD274) mRNA in HEYA8 tumors; assay: PD-L1 mRNA by TaqMan RT PCR in HEYA8 tumor xenograft model; type: in vivo, human; conditions: tumor xenograft model bearing HEYA8 (KRAF mutant ovarian cancer)
Procedure: as §1, §2

[6] = tested on: PD-L1 (CD274) mRNA in LOXIMV1 tumors; assay: PD-L1 mRNA by TaqMan RT PCR in LOXIMV1 tumor xenograft model; type: in vivo, human; conditions: tumor xenograft model bearing LOXIMV1 (BRAF mutant melanoma)
Procedure: as §1, §2

huPD-L1 = target: T1, huPD-L1 (Homo sapiens, UniProt Q9NZQ7); assay: FACS binding of chimeric and humanized BAP058 mAbs to 300.19 cells expressing huPD-L1; conditions: 300.19 cell line expressing huPD-L1 on the cell surface
T1 construct: expressed in transfected cells; host or cells: 300.19 cells
T1 sequence (Q9NZQ7 19-290): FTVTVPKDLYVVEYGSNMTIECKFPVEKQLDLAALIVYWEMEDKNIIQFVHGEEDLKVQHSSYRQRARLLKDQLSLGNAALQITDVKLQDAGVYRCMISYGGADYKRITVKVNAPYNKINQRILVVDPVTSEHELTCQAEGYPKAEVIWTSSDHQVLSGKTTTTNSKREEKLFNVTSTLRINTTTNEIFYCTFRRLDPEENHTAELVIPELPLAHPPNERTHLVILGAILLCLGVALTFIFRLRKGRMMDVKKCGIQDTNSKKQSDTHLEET
Procedure: FIG. 3 is a bar graph showing the results of FACS binding analysis for the seventeen humanized BAP058 clones (BAP058-hum01 to BAP058-hum17). The antibody concentrations are 200, 100, 50, 25 and 12.5 ng/ml from the leftmost bar to the rightmost bar for each tested mAb.
Humanization of BAP058 was performed using a combinatorial library of human germline variable region frameworks (FWs). The technology entails transferring the murine CDRs in frame to a library of human variable regions (VRs) that had been constructed by randomly combining human germ line FW1, FW2 and FW3 sequences. Only one FW4 sequence was used, which is […] (SEQ ID NO: 154) for the heavy chain (HC) (Kabat human HC subgroup I, No. 21) and […] (SEQ ID NO: 186) for the light chain (LC) (Kabat human κ subgroup I, No. 5). The library of VR sequences was fused to human constant region (CR) sequences, human IgG4 (S228P) of HC and human κ CR of LC, and the resulting library of whole IgG mAbs was expressed in CHO cells for screening. Screening was performed with tissue culture supernatants measuring binding avidity on antigen-expressing cells in a whole cell ELISA format or on FACS.
Binding of the recombinant clone to human PD-L1 was tested using the 300.19 cell line expressing huPD-L1 on the cell surface and FACS analysis.

Molecule: N#CC[C@H](C1CCCC1)n1cc(-c2ncnc3[nH]ccc23)cn1 [Compound A18, Ruxolitinib Phosphate]
- PD-L1 mRNA [1]: Downregulation of PD-L1 mRNA

Molecule: Cc1cc(Nc2ncc(Cl)c(Nc3ccccc3S(=O)(=O)C(C)C)n2)c(OC(C)C)cc1C1CCNCC1 [Compound A23, ceritinib]
- PD-L1 mRNA [2]: Inhibition of PD-L1 mRNA

Molecule: CNC(=O)c1ccc(-c2cnc3ncc(Cc4ccc5ncccc5c4)n3n2)cc1F [Compound A17, 2-fluoro-N-methyl-4-(7-(quinolin-6-ylmethyl)imidazo[1,2-b][1,2,4]triazin-2-yl)benzamide]
- surface expression of PD-L1 (flow cytometry) [3]: significant downregulation of surface expression of PD-L1
- PD-L1 expression (mRNA) [4]: Inhibition of PD-L1 expression (mRNA)

Molecule: Cn1cnc2c(F)c(Nc3ccc(Br)cc3F)c(C(=O)NOCCO)cc21 [Compound A34, Binimetinib]
- PD-L1 mRNA [5]: Downregulation of PD-L1 mRNA

Molecule: COC(=O)N[C@@H](C)CNc1nccc(-c2cn(C(C)C)nc2-c2cc(Cl)cc(NS(C)(=O)=O)c2F)n1 [Compound A29, Encorafenib]
- PD-L1 mRNA [6]: Downregulation of PD-L1 mRNA

- Binding to human PD-L1 (FACS analysis) (huPD-L1): bound well to the antigen
B1: BAP058-chi: chimeric mAb: murine VR, human IgG4 (S228P), human κ (antibody, V domains shown)
VH: EVQLQQSGAELVKPGASVKLSCKASGYTFTSYWMYWVKQGPGRGLEWIGRIDPNSGSTKYNEKFKNKATLTVDKSSSTAYMQLSSLTSEDSAVYYCARDYRKGLYAMDYWGQGTTVTVSS
VL: DIMMTQSHKFMSTSVGDRVSITCKASQDVGTAVAWYQQKPGQSPKLLIYWASTRHTGVPDRFTGSGSGTDFTLTISNVQSEDLADYFCQQYNSYPLTFGQGTKVEIK
